The values that follow come from PubChem BioAssay AID749 (The Scripps Research Institute Molecular Screening Center, 2007).

The structures appear in SMILES notation. Active and inactive are the calls of the source.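 Rule for the calls: active = IC50 at or below 10 micromolar; inactive = IC50 above 10 micromolar.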

The test deals with 5-hydroxytryptamine receptor 1E (Homo sapiens) (UniProt P28566). The test is described as follows: blockade of human 5HT1E serotonin receptor – cell-based, dose response (AID 749). Conditions: CHO 5-HT1E Ga15 NFAT-BLA reporter, FRET.
Chain of 5-hydroxytryptamine receptor 1E (Homo sapiens) (P28566 whole entry, looked up): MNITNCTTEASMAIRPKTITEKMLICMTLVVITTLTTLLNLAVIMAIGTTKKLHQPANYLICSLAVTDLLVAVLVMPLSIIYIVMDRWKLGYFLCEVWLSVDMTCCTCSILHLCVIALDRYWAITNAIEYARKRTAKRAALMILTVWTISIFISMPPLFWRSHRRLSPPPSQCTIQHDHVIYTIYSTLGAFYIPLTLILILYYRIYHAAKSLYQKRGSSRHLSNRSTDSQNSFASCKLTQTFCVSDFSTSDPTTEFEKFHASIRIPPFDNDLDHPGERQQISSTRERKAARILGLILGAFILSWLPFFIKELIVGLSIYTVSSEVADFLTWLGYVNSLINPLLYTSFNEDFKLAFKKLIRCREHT
Turning to `COc1cccc(N2CCN(c3ncnc4c3[nH]c3ccc(F)cc34)CC2C)c1` (configuration not stated), the IC50 was 1.82 µM.

As for `COc1cccc(N2CCN(c3ncnc4c3[nH]c3ccccc34)CC2C)c1` (configuration not stated), the IC50 was 8.24 µM.

Regarding `CCOc1ccc(C2=Nn3c(nnc3-c3ccccc3OC)SC2)cc1`, the IC50 is > 50 µM (inactive).

As for `COc1ccc(-n2nnnc2S(=O)(=O)CC(=O)N2CCCCC2)cc1`, the IC50 was 2.61 µM.

For the compound `COCCOC(=O)c1[nH]c2c(c1C)C(=O)CC(c1ccccc1)C2` (configuration not stated), the IC50 is > 50 µM (inactive).

For `O=S1(=O)C=C(Sc2nnc(-c3ccccc3)o2)c2ccccc21`, the IC50 is 1.04 µM.

Consider `Cn1c(-c2c(N)n(C3CCCC3)c3nc4ccccc4nc23)nc2ccccc21`, for which the IC50 was 3.64 µM.

For `CCOc1cccc(-c2nnc3n2N=C(c2cc(OC)ccc2OC)CS3)c1`, the IC50 was > 32.7 µM (inactive).

Regarding `COC(=O)Nc1nc2ccc(Sc3ccccc3)cc2[nH]1`, the IC50 was > 50 µM (inactive).

With `CCCOc1ccc2nc(NC(=O)OC)[nH]c2c1`, the IC50 was > 50 µM (inactive).

As to `COc1ccccc1-c1nnc2n1N=C(c1ccc(O)c(O)c1)CS2`, the IC50 was > 50 µM (inactive).

As for `CN(C)c1nc(OCCNC(=O)COc2ccc(Cl)cc2Cl)nc(N2CCCCC2)n1`, the IC50 was > 50 µM (inactive).

Regarding `Cc1ccc(-n2nc3c([n+]2[O-])CCc2c-3no[n+]2[O-])cc1`, the concentration for half-maximal inhibition (IC50) was 3.9 µM.

`N#CCCS(=O)(=O)c1nnnn1-c1ccccc1`: the IC50 is 2.79 µM.

Consider `CCCc1nnc2n1N=C(c1ccc(OC)c(OC)c1)CS2`, for which the IC50 is > 50 µM (inactive).

In the case of `CCN(CC)c1ccc2c(Cl)c(Br)c(=O)oc2c1`, the IC50 was 0.999 µM.

Regarding `CCn1nc(-c2cccs2)nc2c(=O)n(C)c(=O)nc1-2`, the IC50 is 0.629 µM.

Consider `N#C/C(=C/c1ccc(N2CCCCCC2)o1)c1ccc(F)cc1`, for which the IC50 was 5.2 µM.

As to `O=C(Nc1ccc(-c2nc3ncccc3o2)cc1)c1ccc(Br)o1`, the IC50 is > 50 µM (inactive).

`COc1ccc(C2N(c3ccc(F)cc3)C(=O)C3CCCN32)cc1` (configuration not stated): the IC50 is > 38.2 µM (inactive).

As to `CC(=O)Nc1cc(OC(C)=O)c2nonc2c1OC(C)=O`, the 50% inhibitory concentration (IC50) is 2.1 µM.

Take `COc1cc2c(cc1OC)-c1cc(N3CCCc4ccccc43)nc(=O)n1CC2`: the IC50 is > 50 µM (inactive).

Consider `COc1ccc(N2C(=O)CC(NCc3ccncc3)C2=O)cc1` (configuration not stated), for which the IC50 was > 50 µM (inactive).

On to `CS(=O)(=O)c1nc(-c2cccs2)cc(C(F)(F)F)n1`, for which the IC50 is 1.93 µM.

As to `CS(=O)(=O)c1nc(-c2ccccc2)cc(C(F)(F)F)n1`, the IC50 was 2.13 µM.

Consider `COc1ccc(-c2cc(C(F)(F)F)nc(S(C)(=O)=O)n2)cc1OC`, for which the IC50 is 2.91 µM.

As to `COc1cc(NS(=O)(=O)c2ccc(C)cc2)c2ncccc2c1`, the IC50 was 3.75 µM.

On to `COc1cccc(N2CCN(c3ncnc4c3cnn4-c3ccc(C)cc3C)CC2)c1`, for which the IC50 is 6.99 µM.

In the case of `CCn1nc(-c2ccccc2)nc2c(=O)n(C)c(=O)nc1-2`, the IC50 is > 50 µM (inactive).

In the case of `CC(C)=CCC(C)(C)CNC(=O)NC1CCCCC1`, the IC50 is > 50 µM (inactive).

Regarding `O=C1C2C3C=CC(CO)(O3)C2C(=O)N1c1ccc(-c2ccccc2)cc1` (configuration not stated), the IC50 is 4.91 µM.

`CC(=O)Oc1ccc(N2C(=O)C3C(C2=O)C2(C)C=CC3(C)O2)cc1` (configuration not stated): the IC50 is 2.62 µM.

Take `COC(=O)/C(=C1/Oc2cc(C)oc(=O)c2S1)C(F)(F)F`: the IC50 was 1.86 µM.

Regarding `CS(=O)(=O)c1nc(-c2ccco2)cc(C(F)(F)F)n1`, the IC50 was 2.26 µM.

Turning to `CCn1c(=O)c(C(=O)Nc2nc3ccccc3[nH]2)c(O)c2ccccc21`, the IC50 entry is “inactive”.

As to `CCC(NC(=O)Nc1nnc(C(F)(F)F)s1)(C(F)(F)F)C(F)(F)F`, the IC50 entry was “inactive”.

With `COc1cc2c(cc1OC)C1=C(C#N)CC/C(=N\S(=O)(=O)c3ccccc3)N1CC2`, the IC50 was > 50 µM (inactive).

With `Clc1ccc(-n2nnnc2Sc2ncnc3sccc23)cc1`, the IC50 was 3.5 µM.

In the case of `Cc1ccc(S(=O)(=O)Nc2cccc3ncccc23)s1`, the IC50 is 2.91 µM.

As for `CCCOCCOC(=O)c1[nH]c2c(c1C)C(=O)CC(c1cc(OC)ccc1OC)C2` (configuration not stated), the IC50 was > 50 µM (inactive).

On to `CSc1ccccc1N=CC1=C(O)CC(C)(C)CC1=O`, for which the half-inhibitory concentration (IC50) is 2.35 µM.

As to `O=C(Nc1ccc(N2CCOCC2)cc1)Nc1ccc2nc(-c3ccco3)c(-c3ccco3)nc2c1`, the IC50 is > 17.2 µM (inactive).
